Source: US20250367209A1 (SOUTHERN RESEARCH INSTITUTE, priority 2022, published 2025)
Where two headings read alike, the source gives them in different places.

Assays:
Tau-FynSH3 interaction = Tau-FynSH3 interaction (Homo sapiens (Human), UniProt P10636); assay: Tau-FynSH3 AlphaScreen; format: binding; settings: for lower / reduced AlphaScreen activity: compared to compound no. 20
Source text: Human Fyn-SH3 domain with GST-tag at the N-terminus and a Strep-tag II ([…]) at the C-terminus (GST-Fyn-SH3-Strep) was cloned into pPR-IBA1 vector (IBA Lifesciences) (Cochran, et al. (2014) J. Biomol. Screen. 19, 1338-1349). Codon-optimized human 4R2N Tau for E. coli expression with a Strep-tag II at the C-terminus (His-Tau-Strep) was cloned into pET-28a(+) vector (Novagen). The constructs were transformed into E. coli BL-21(DE3) competent cells (Novagen). For GST-Fyn-SH3-Strep purification, a single colony was inoculated in Luria-Bertani (LB) broth at 37° C. overnight. 10 mL cell culture was added into 500 mL LB medium and cultured at 37° C. 0.5 mM Isopropyl β-D-1-thiogalactopyranoside (IPTG) was added into the culture when OD600 reached 0.7. Cells were further cultured at 25° C. for 4 hours and harvested. Cell pellet was resuspended in lysis buffer (20 mM Tris pH 7.9, 300 mM NaCl, 1 mM TCEP) with 1 tablet of EDTA-free protease inhibitors (ThermoFisher) and 1 mg/ml lysozyme. Cells were disrupted by sonication and debris was removed by centrifugation at 9500 rpm for 1 hour. Supernatant was loaded onto a glutathione-sepharose column (Cytiva). The column was washed in lysis buffer and protein eluted in lysis buffer containing 25 mM reduced glutathione. For His-Tau-Strep protein purification, cells were inoculated in LB broth medium and cultured at 37° C. overnight. A 10 mL overnight culture was added to 500 mL of auto-induction medium (Studier, F. W. (2005) Protein Expr Purif 41, 207-34) and cells were cultured at 37° C. for about 5 hours. The temperature was lowered to 18° C., and cells were cultured overnight. Cells were harvested and resuspended in lysis buffer with 20 mM imidazole, protease inhibitors, and lysozyme. Cells were disrupted by sonication and cell pellets were spun down at 9500 rpm for 1 hour. Supernatant was loaded onto Ni-NTA column (Cytiva) and the column was washed in lysis buffer with 20 mM imidazole. His-Tau-Strep protein was eluted in lysis buffer containing 400 mM imidazole. Both eluted GST-Fyn-SH3-Strep and His-Tau-Strep protein solutions were passed through G-25 desalting column (Cytiva) with lysis buffer and loaded onto high capacity Strep-Tactin column (IBA Lifesciences). The columns were washed in Buffer W (IBA Life sciences) and proteins were eluted in Buffer E (IBA life sciences). The eluted proteins were passed through G-25 desalting column again. Both GST-Fyn-Strep and His-Tau-Strep proteins were concentrated and diluted 1:1 in ethylene glycol as a cryoprotectant for storage at −80° C.
AlphaScreen was conducted with 10 µg/mL of glutathione donor beads (PerkinElmer, Waltham, MA) and nickel chelate acceptor beads (PerkinElmer) in 10 mM Bis-Tris (pH 7.0), 1 mM TCEP, 0.02% casein, and 0.1% Tween-20. Compounds were plated first followed by addition of one the proteins at 600 nM and incubation for 30 min. The second protein was added and incubated for 30 mn, then the beads were added simultaneously and the final mixture was incubated for 2 hours. Experiments were conducted in 384-well plates (6007290; PerkinElmer) and results were read on a PHERAstar plate reader (BMG Labtech, Cary, NC).
˜50,000 compounds from the Enamine and Southern Research libraries were screened to identify Tau-FynSH3 interaction inhibitors using an AlphaScreen assay (Cochran, et al. (2014) J. Biomol. Screen. 19, 1338-1349). Compounds that were >3 standard deviations above mean inhibition were selected, yielding 1,852 hits (FIG. 1A). […]. These 39 compounds were tested in a live-cell BRET assay to measure Tau-Fyn interaction in cells. […]. Screen. 19, 1338-1349).

Solubility = format: physicochemical; settings: Table 2
primary rat neurons = assay: Modified MTT assay of Aβ toxicity in primary neurons; format: cell-based; settings: compound 0.3, 3 or 15 μM, 90-minute pretreatment, 2.5 μM Aβ, 24 hours
Source text: Primary neuron cultures: All animal procedures were approved by the Institutional Animal Care and Use Committee at the University of Alabama at Birmingham (UAB). As before (Rush, et al. (2020) Neurobiol Dis 134, 104668; Voskobiynyk, et al. (2020) eLife 9, e57354), primary rat neurons were isolated from timed-pregnant Sprague-Dawley rats. Briefly, dams were euthanized with isoflurane anesthesia asphyxiation, and hippocampal tissue was isolated from E19 embryos in Hibernate E, then digested in papain for 10 minutes at 37° C. Neurons were triturated into a single cell suspension in Neurobasal supplemented with B-27, L-Glutamine, and 10% FBS, then plated in 96-well plates coated with PDL and laminin at 30,000 neurons per well in 200 uL medium or in 24-well coated plates with or without coverslips at 50,000 per well. Cultures were maintained at 37° C. with 5% CO2. Twenty-four hours after plating (DIV1), two 50% media changes with Neurobasal plus B-27 and L-Glutamine without FBS, and 5 μM cytosine β-D-arabinofuranoside was added to prevent glial proliferation. 50% media changes were performed at DIV7 and DIV14 with serum-free supplemented Neurobasal and experiments were started at DIV19.
Aβ oligomer preparation: As before (Rush, et al. (2020) Neurobiol Dis 134, 104668), lyophilized recombinant Aβ42 was dissolved in HFIP, dried overnight, then stored at −20° C. until oligomerization. To oligomerize, Aβ was dissolved in DMSO to 1 mM, then diluted to 100 µM in PBS, then sonicated and left on ice for 24 hours. Immediately prior to use, Aβ was centrifuged at 4° C. for 10 minutes at 14,000×g. Vehicle was prepared as well in identical fashion except lacking the Aβ peptide.
Aβ toxicity assays: The modified MTT and MAP2 assays were adapted from a recent study (Rush, et al. (2020) Neurobiol Dis 134, 104668). Briefly, at DIV19, media on the neurons was reduced to […], then compound was added to final concentration of 0 μM, 0.3 μM, 3 μM, or 15 μM with even amounts of DMSO. After 90-minute pretreatment with compound, 2.5 μM Aβ was added.
The modified MTT assay was performed 24 hours after Aβ application. 100 μM MTT was applied to neurons and incubated at 37° C. for one hour. Media was removed, then replaced with 15 μL 1.6% Tween20 in PBS and incubated on a shaker at 100 rpm for 5 minutes. The Tween was then removed and transferred to a 384-well clear-bottom plate and replaced with 15 μL isopropanol. Plates were again agitated for 5 minutes at RT, then isopropanol was transferred to the 384-well plate. Absorbance was then read at 590 nm on a plate reader, with 660 nm used as a reference. The ratio of Tween soluble MTT to isopropanol soluble (Tween-insoluble) MTT was calculated for each sample, then normalized to the vehicle group average.

[1] = Table 3, read-out: Alpha screen IC50
[2] = Table 2, Tau-FynSH3 inhibitory activity in the AlphaScreen, read-out: IC50

Chain of Tau-FynSH3 interaction (P10636 other isoform, or with tags, fused parts or gaps): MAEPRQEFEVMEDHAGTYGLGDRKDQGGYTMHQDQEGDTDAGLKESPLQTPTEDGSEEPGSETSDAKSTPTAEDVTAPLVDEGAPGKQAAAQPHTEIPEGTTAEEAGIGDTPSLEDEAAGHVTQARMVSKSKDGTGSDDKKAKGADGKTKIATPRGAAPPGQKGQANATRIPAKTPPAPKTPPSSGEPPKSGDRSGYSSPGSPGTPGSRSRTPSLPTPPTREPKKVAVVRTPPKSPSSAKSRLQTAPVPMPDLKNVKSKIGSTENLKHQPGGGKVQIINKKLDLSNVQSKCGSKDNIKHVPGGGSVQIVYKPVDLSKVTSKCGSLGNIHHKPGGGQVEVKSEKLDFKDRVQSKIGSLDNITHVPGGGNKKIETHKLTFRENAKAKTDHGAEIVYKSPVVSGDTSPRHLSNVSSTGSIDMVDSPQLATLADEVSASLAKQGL

O=C(CN1C(=O)CSc2ccccc21)Nc1cccc(C(=O)N2CCOCC2)c1 [compound 44, N-(3-(MORPHOLINE-4-CARBONYL)PHENYL)-2-(3-OXO-2,3-DIHYDRO-4H-BENZO[B][1,4]THIAZIN-4-YL)ACETAMIDE]
Alpha screen IC50 (μM) (Tau-FynSH3 interaction; Table 3): Inactive

O=C(CN1C(=O)COc2cc(F)ccc21)Nc1nnc(-c2ccccn2)[nH]1 [compound 46, 2-(7-FLUORO-3-OXO-2,3-DIHYDRO-4H-BENZO[B][1,4]OXAZIN-4-YL)-N-(5-(PYRIDIN-2-YL)-4H-1,2,4-TRIAZOL-3-YL)ACETAMIDE]
IC50 (Tau-FynSH3 interaction; [1]): 2960 nM

O=C(CN1C(=O)CCc2cc(Cl)ccc21)Nc1nnc(-c2ccccn2)[nH]1 [compound 48, 2-(6-CHLORO-2-OXO-3,4-DIHYDROQUINOLIN-1(2H)-YL)-N-(5-(PYRIDIN-2-YL)-4H-1,2,4-TRIAZOL-3-YL)ACETAMIDE]
IC50 (Tau-FynSH3 interaction; [1]): 1200 nM

COc1ccc2c(c1)N(CC(=O)Nc1nnc(-c3ccccn3)[nH]1)C(=O)CO2 [compound 49, 2-(6-METHOXY-3-OXO-2,3-DIHYDRO-4H-BENZO[B][1,4]OXAZIN-4-YL)-N-(5-(PYRIDIN-2-YL)-4H-1,2,4-TRIAZOL-3-YL)ACETAMIDE]
IC50 (Tau-FynSH3 interaction; [1]): 1600 nM

COc1ccc2c(c1)N(CC(=O)Nc1nnc(-c3ccccn3)[nH]1)C(=O)CC2 [compound 50, 2-(7-METHOXY-2-OXO-3,4-DIHYDROQUINOLIN-1(2H)-YL)-N-(5-(PYRIDIN-2-YL)-4H-1,2,4-TRIAZOL-3-YL)ACETAMIDE]
IC50 (Tau-FynSH3 interaction; [1]): 1600 nM

O=C(CN1C(=O)CCc2cc(F)ccc21)Nc1nnc(-c2ccccn2)[nH]1 [compound 51, 2-(6-FLUORO-2-OXO-3,4-DIHYDROQUINOLIN-1(2H)-YL)-N-(5-(PYRIDIN-2-YL)-4H-1,2,4-TRIAZOL-3-YL)ACETAMIDE]
IC50 (Tau-FynSH3 interaction; [1]): 1600 nM

O=C(CN1C(=O)COc2cc(Cl)ccc21)Nc1nnc(-c2ccccn2)[nH]1 [compound 52, 2-(7-CHLORO-3-OXO-2,3-DIHYDRO-4H-BENZO[B][1,4]OXAZIN-4-YL)-N-(5-(PYRIDIN-2-YL)-4H-1,2,4-TRIAZOL-3-YL)ACETAMIDE]
IC50 (Tau-FynSH3 interaction; [1]): 1600 nM

Cc1ccc2c(c1)OCC(=O)N2CC(=O)Nc1nnc(-c2ccccn2)[nH]1 [compound 53, 2-(7-METHYL-3-OXO-2,3-DIHYDRO-4H-BENZO[B][1,4]OXAZIN-4-YL)-N-(5-(PYRIDIN-2-YL)-4H-1,2,4-TRIAZOL-3-YL)ACETAMIDE]
IC50 (Tau-FynSH3 interaction; [1]): 1600 nM

Cc1ccc2c(c1)CCC(=O)N2CC(=O)Nc1nnc(-c2ccccn2)[nH]1 [compound 54, 2-(6-METHYL-2-OXO-3,4-DIHYDROQUINOLIN-1(2H)-YL)-N-(5-(PYRIDIN-2-YL)-4H-1,2,4-TRIAZOL-3-YL)ACETAMIDE]
IC50 (Tau-FynSH3 interaction; [1]): 1400 nM

O=C(CN1CCSc2cc(Cl)ccc21)Nc1nnc(-c2ccccn2)[nH]1 [compound 58]
Solubility (Solubility): <1 µM

Cc1ccc2c(c1)SCCN2CC(=O)Nc1nnc(-c2ccccn2)[nH]1 [compound 60]
Solubility (Solubility): <1 µM

O=C(CN1CCCCC1)Nc1nnc(-c2ccccn2)[nH]1 [compound 65]
lower / reduced AlphaScreen activity (Tau-FynSH3 interaction): 8-10 fold

O=C(CN1CCOCC1)Nc1nnc(-c2ccccn2)[nH]1 [compound 66]
lower / reduced AlphaScreen activity (Tau-FynSH3 interaction): 8-10 fold

O=C(CN1CCSc2ccccc21)Nc1ncc(-c2ccccn2)o1 [compound 68]
AlphaScreen activity (in words) (Tau-FynSH3 interaction): lost activity
IC50 (Tau-FynSH3 interaction; [2]): > 100000 nM

O=C(CN1C(=O)CCc2ccccc21)Nc1nnc(-c2ccccn2)[nH]1 [compound no. 2, 2-(2-OXO-3,4-DIHYDROQUINOLIN-1(2H)-YL)-N-(5-(PYRIDIN-2-YL)-4H-1,2,4-TRIAZOL-3-YL)ACETAMIDE]
IC50 (Tau-FynSH3 interaction; [2]): 2720 nM

O=C(CCN1C(=O)CCc2ccccc21)Nc1nnc(-c2ccccn2)[nH]1 [compound no. 3, 3-(2-Oxo-3,4-DIHYDROQUINOLIN-1(2H)-YL)-N-(5-(PYRIDIN-2-YL)-4H-1,2,4-TRIAZOL-3-YL)PROPANAMIDE]
IC50 (Tau-FynSH3 interaction; [2]): > 100000 nM

O=C(CCN1C(=O)CSc2ccccc21)Nc1ncc(-c2ccccn2)[nH]1 [compound no. 5, 3-(3-Oxo-2H-BENZO[B][1,4]THIAZIN-4(3H)-YL)-N-(5-(PYRIDIN-2-YL)-1H-IMIDAZOL-2-YL)PROPANAMIDE]
IC50 (Tau-FynSH3 interaction; [1]): 3240 nM

O=C(CCN1C(=O)CSc2ccccc21)Nc1ccc(-n2cncn2)cc1 [compound no. 37, N-(4-(1H-1,2,4-TRIAZOL-1-YL)PHENYL)-3-(3-oxo-2,3-DIHYDRO-4H-BENZO[B][1,4]THIAZIN-4-YL)PROPANAMIDE]
AlphaScreen activity (in words) (Tau-FynSH3 interaction): no observed AlphaScreen activity
IC50 (Tau-FynSH3 interaction; [2]): > 100000 nM
Alpha screen IC50 (μM) (Tau-FynSH3 interaction; Table 3): Inactive
Aβ toxicity / Aβ-induced membrane trafficking dysfunction, modified MTT assay (primary rat neurons): did not ameliorate Aβ toxicity

O=C(CN1C(=O)CSc2ccccc21)Nc1nnc(-c2ccccn2)[nH]1 [compound no. 56]
improvement in activity in the Tau-FynSH3 AlphaScreen (Tau-FynSH3 interaction; compared to compound no. 55): five-fold improvement in activity
IC50 (Tau-FynSH3 interaction; read-out: IC50 in the Tau-FynSH3 AlphaScreen): 840 nM
